Results taken from paper PMC8282797, “Strictly regulated agonist-dependent activation of AMPA-R is the key characteristic of TAK-653 for robust synaptic responses and cognitive improvement” (Scientific Reports, 2021).
Entries after “also recorded” stand apart in the source; their conditions may differ.

Experiments:
rats [1] = test: Seizure and abnormal behavior of LY451646 and AMPA in rats; format: in vivo, rat; conditions: i.p.
97 targets = test: In vitro selectivity profile (Ricerca); conditions: 10 μM
GluA2o LBD = GluA2o LBD (Homo sapiens, UniProt P42262); test: SPA displacement of [3H]-HBT1 from His-tagged GluA2o LBD; conditions: 40 nM [3H]-HBT1, 100 μM glutamate, read-out: IC50, inhibition of binding between [3H]-HBT1 and His-LBD
Excerpt: We previously reported that structural interference at Ser750 in the channel-closed state of GluA2o LBD might be involved in the molecular mechanisms underlying the lower agonistic effect of AMPA-R potentiators with dihydropyridothiadiazine 2,2-dioxide derivatives and discovered TAK-137, 9-(4-phenoxyphenyl)-3,4-dihydropyrido[2,1-c][1,2,4]thiadiazine 2,2-dioxide (Fig. 1A)[16]. […] TAK-653 bound to the intradimer interface formed by the ligand binding core (Fig. 1B). […] Binding affinity of TAK-653 to the GluA2o LBD was measured by a scintillation proximity assay (SPA) using [^3H]-HBT1, a radio-labeled LBD-binding AMPA-R potentiator, and a His-tagged GluA2o LBD protein (His-LBD)[21]. […] Binding of [^3H]-TAK-653 to His-LBD was also measured by SPA.
The SPA assays were performed as previously described, with some modifications. […] Radioactivity derived from the bound radio ligand was measured using a microplate scintillation counter (TopCount NXT, PerkinElmer Inc.).

[2] = Pharmacokinetics in monkeys; format: in vivo; conditions: monkey, plasma, po, 0.03 mg/kg
rats [3] = test: Exposure margin against seizure after acute treatment; format: in vivo, rat; conditions: NOR improvement versus absence of seizure signs
Protocol: Thus, we decided to calculate the exposure safety margins of AMPA-R potentiators based on the cognitive improvement in the NOR test and the absence of signs of seizures. […] Thus, TAK-653 may have a wider exposure margin than LY451646 in rats.
The data were extracted from the studies conducted in accordance with the Good Laboratory Practice Regulation. […] The dose levels in the first study and second study were set at "100, 15 and 5 mg/kg, p.o." and "50, 15 and 5 mg/kg, p.o.", respectively. The dosing suspensions were administered into the stomach via a catheter in the morning at the dose volume of 5 mL/kg. Cage side observations to confirm tonic or […] convulsions were conducted before and at 1, 2, 4, 8 and 24 h after dosing in the first study and before and at 1, 4 and 24 h after dosing in the second study.
The Sprague–Dawley rats treated with orally administered TAK-653 were decapitated at each time point, and trunk blood was collected into 1.5-mL centrifuge tubes. Plasma was separated from the blood samples by centrifugation. The concentrations of TAK-653 in the plasma were determined using liquid chromatography/tandem mass spectrometry (LC/MS/MS).

cynomolgus monkeys = test: Delayed match-to-sample (DMTS) task; format: in vivo, cynomolgus monkey (Macaca fascicularis); conditions: 0.06 mg/kg, p.o., 6 h prior to testing
Protocol: DMTS tasks were performed using 4–6 years old male cynomolgus monkeys (Macaca fascicularis) weighing 4–6 kg as previously described, using a Cambridge Neuropsychological Test Automated Battery (CANTAB) system (CeNes, Cambridge, UK). Monkeys were maintained at 80% of free-feeding body weight throughout the experiment. Details are described in the Supplementary Information.
The experiment was performed using 4-6 years old male cynomolgus monkeys (Macaca fascicularis) weighing 4-6 kg. Monkeys were maintained at 80% of free-feeding body weight throughout the experiment. Four monkeys were trained to perform DMTS task using a Cambridge Neuropsychological Test Automated Battery (CANTAB) system (CeNes, Cambridge, UK) (Weed et al., 1999). Briefly, a trial was initiated by presentation of an image of a sample object on the screen. The monkey had to touch this object on the screen within 30 s. Then, the sample object was diminished from the screen, and a variable delay (0, 4, 8, and 16 s) was ensured. After the delay, the sample object was re-presented together with three other objects. The monkey had to choose the sample object from the four objects and a collect choice was reinforced by the food reward. The ITI was 5 s and one session consisted of 96 trials (24 trials of each delay of 0, 4, 8, and 16 s). […] The correct responses were recorded for all trials during test sessions. […]

poly-I:C mouse = test: Social approach-avoidance test in poly-I:C mouse; format: in vivo; conditions: 0.3 mg/kg, p.o., 1 h prior to test
Protocol: Poly-I:C (5 mg/kg) dissolved in sterile pyrogen-free 0.9% NaCl (control) solution was administered to pregnant female C57BL/6J mice on gestation day 15 (GD15) via the intravenous route at the tail vein with a volume of 5 ml/kg.
The apparatus was a three-chamber gray acryl box (53 × 19 × 21.5 cm, outer chamber: 19.3 × 19 × 21.5 cm), and dividing walls were made from clear acryl plates with gates. In the two outer chambers, transparent acryl cylinders with small holes (cylinder: 8.2 cm φ × 20.5 cm, hole: 1.3 cm φ) were placed to avoid direct physical interaction between a target animal and a test animal. Target animals were C57BL/6 J mice of the same age as test animals and no previous contact with them. On the test day, TAK-653 (0.3 mg/kg, p.o.) or vehicle was administered 1 h before the testing session. Each test animal was introduced in the middle chamber of test apparatus for 3 min with the gates being closed by partitions. Then the partitions were removed gently for the test animal to explore all three chambers freely for 5 min. Sniffing index was calculated as the index of sociability using the following equation:
Sniffing index = (Sniffing time to cylinder containing target mouse (s) − Sniffing time to empty cylinder (s))/ (Total sniffing time (s)).

GluA2o LBD, sequence (P42262 with tags, fused parts or gaps): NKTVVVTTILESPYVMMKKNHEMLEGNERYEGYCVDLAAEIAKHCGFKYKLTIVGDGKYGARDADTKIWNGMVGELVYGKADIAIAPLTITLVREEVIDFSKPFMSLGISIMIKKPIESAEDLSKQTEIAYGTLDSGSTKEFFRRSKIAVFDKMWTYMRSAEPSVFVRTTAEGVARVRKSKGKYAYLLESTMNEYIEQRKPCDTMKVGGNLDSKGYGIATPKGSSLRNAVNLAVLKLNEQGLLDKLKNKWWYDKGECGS

## Cc1onc(O)c1CC(N)C(=O)O (stereo not drawn) [AMPA, alpha-amino-3-hydroxy-5-methyl-4-isoxazole-propionic acid]
Rats [1]; 10 mg/kg
  Abnormal behavior: abnormal behavior such as head turning
Rats [1]; 30 mg/kg
  Seizure: induced seizure

## CC1=CN2CCS(=O)(=O)N=C2C(c2ccc(OC3CCCCC3)cc2)=N1 [TAK-653, 9-[4-(Cyclohexyloxy)phenyl]-7-methyl-3,4-dihydropyrazino[2,1-c][1,2,4]thiadiazine 2,2-dioxide]
97 targets
  Selectivity against 97 targets: highly selective
GluA2o LBD
  IC50: 260 nM
[2]
  Tmax: 8 h
  half-life: 9.4 ± 3.8 h
Rats [3]
  Margin based on AUCplasma: 1017 fold
  Margin based on plasma Cmax: 419 fold
Cynomolgus monkeys
  DMTS accuracy at 16-s delay interval: significantly ameliorated; also recorded: significantly increased
poly-I:C mouse
  Sniffing index: significantly improved
